In brackets after ≈: the same amount, converted by molar mass.
Assays:
[1] = Binding affinity to AAC(6')-lb (unknown origin)
[2] = Inhibition of AAC(6')-lb (unknown origin)
[3] = Activity at AAC(6')-li (unknown origin)
Escherichia coli = test: Antibacterial activity against Escherichia coli ATCC 25922; assay type: functional
[4] = Binding affinity to biotinylated Escherichia coli 16S rRNA A-site
[5] = Ratio of Kcat to Km for AAC(6')-li (unknown origin)
[6] = Inhibition of AAC(6')-ly (unknown origin) in presence of ribostamycin
[7] = Inhibition of AAC(6')-ly (unknown origin) in presence of kanamycin A

Work on `CC(C)(COP(=O)(O)OP(=O)(O)OC[C@H]1O[C@@H](n2cnc3c(N)ncnc32)[C@H](O)[C@@H]1OP(=O)(O)O)[C@@H](O)C(=O)NCCC(=O)NCCSCC(=O)NCc1ccc(O[C@H]2C[C@H](N)C[C@@H]2N)cc1` yielded a Kd [1] of 950 nM and a Ki [2] of 500 nM.
For `NC[C@H]1O[C@H](O[C@H]2[C@H](OCC(=O)NCCCNC(=O)CO[C@@H]3[C@@H](O)[C@H](N)C[C@H](N)[C@H]3O[C@H]3O[C@H](CN)[C@@H](O)[C@H](O)[C@H]3N)[C@@H](O)[C@H](N)C[C@@H]2N)[C@H](N)[C@@H](O)[C@@H]1O`, the Km [3] was 53.4 µM, the kcat [3] was 0.86 s⁻¹ and the MIC (Escherichia coli) was 31 µM (≈ 24.8 µg/mL). For the same compound, the Kd [4] was 1100 nM and the kcat/Km [5] was 1.6 ×10⁴ /M/s.
For `N=C(N)N[C@H]1[C@@H](O[C@H]2[C@H](O[C@@H]3O[C@H](CO)[C@@H](O)[C@H]3O)[C@@H](O)[C@H](NC(=N)N)C[C@@H]2NC(=N)N)O[C@H](CNC(=O)CCN)[C@@H](O)[C@@H]1O`, the Kii [6] was 92 µM, the Kis [6] was 17 µM and the Kii [7] was 23 µM. For the same compound, the Kis [7] was 31 µM.

— ChEMBL document CHEMBL3217485, “Understanding and overcoming aminoglycoside resistance caused by N-6'-acetyltransferase” (Medchemcomm, 2012)
